Experimental findings from ChEMBL document CHEMBL1125364, “Thromboxane receptor antagonism combined with thromboxane synthase inhibition. 3. Pyridinylalkyl-substituted 8-[(arylsulfonyl)amino]octanoic acids” (J Med Chem, 1992) are described below.

Assay [1] is filed under the species Homo sapiens. Put plainly: The compound was tested in vitro for its inhibitory activity against U 46619-induced aggregation of washed human platelets. It is filed as functional.
The next assay deals with T1, Thromboxane-A synthase (Homo sapiens, UniProt P24557).
T1 sequence (P24557 whole entry): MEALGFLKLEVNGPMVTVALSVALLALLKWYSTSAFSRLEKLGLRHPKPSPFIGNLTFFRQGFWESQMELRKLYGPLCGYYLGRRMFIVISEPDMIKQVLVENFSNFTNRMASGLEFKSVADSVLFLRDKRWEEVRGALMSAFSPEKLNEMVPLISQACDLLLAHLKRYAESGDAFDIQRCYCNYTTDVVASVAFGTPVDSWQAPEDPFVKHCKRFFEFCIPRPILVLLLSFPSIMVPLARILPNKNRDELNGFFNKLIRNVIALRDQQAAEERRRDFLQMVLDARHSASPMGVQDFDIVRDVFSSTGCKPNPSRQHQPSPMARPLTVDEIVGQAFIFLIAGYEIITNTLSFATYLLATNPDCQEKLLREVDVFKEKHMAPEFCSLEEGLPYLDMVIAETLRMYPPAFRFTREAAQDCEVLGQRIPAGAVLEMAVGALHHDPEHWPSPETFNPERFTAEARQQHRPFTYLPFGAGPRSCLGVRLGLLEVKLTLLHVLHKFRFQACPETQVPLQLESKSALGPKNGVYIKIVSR
Description: The compound was tested in vitro for its inhibitory activity against thromboxane synthase A2 (TXA2).

Assay [2] is filed under the species Homo sapiens. Description: The compound was tested in vitro for its inhibitory activity against U 46619-induced aggregation of human platelet rich plasma (PRP). It is filed as functional.
For assay [3], the species on record is Canis familiaris. The following applies: Canis lupus familiaris; Saphenous vein; filed as agonist.
For assay [4], the species on record is Canis familiaris. Put plainly: The compound was tested in vitro for its inhibitory activity against U 46619-induced contraction of saphenous vein in dog. The class given is functional. The following applies: Canis lupus familiaris, read-out: pA2 (converted).
For assay [5], the species on record is Canis familiaris. Description: The compound was tested in vitro for its antagonistic activity against U 46619-induced contraction of saphenous vein in dog; agonist activity was observed at e-6 - e-7. The following applies: Canis lupus familiaris, filed as agonist.

Take `O=C(O)C(CCCCCCNS(=O)(=O)c1ccc(Cl)cc1)CCCCCc1cccnc1` (centres undefined): the values for the half-maximal inhibitory concentration (IC50) in the assay listed under Homo sapiens [1] and on Thromboxane-A synthase were 300 nM and 4 nM, respectively.
In the case of `O=C(O)CCCCCCC(NS(=O)(=O)c1ccc(Cl)cc1)c1cccnc1` (centres undefined), the values for the IC50 in the assay listed under Homo sapiens [2], in the assay filed under Homo sapiens [1] and on Thromboxane-A synthase were 600 nM, 27 nM and above 500 nM, respectively. Further, in the assay filed under Canis familiaris [3], the pA2 entry was “Agonist”.
On to `O=C(O)CCC(CCCCNS(=O)(=O)c1ccc(Cl)cc1)CCCc1cccnc1` (centres undefined), for which the Kb in the assay listed under Canis familiaris [4] was 1.26 nM. Also, the 50% inhibitory concentration (IC50) in the assay listed under Homo sapiens [2] is 390 nM; in the assay listed under Homo sapiens [1], 19 nM; against Thromboxane-A synthase, 2 nM.
On to `O=C(O)CCCCCC(CNS(=O)(=O)c1ccc(Cl)cc1)c1cccnc1` (centres undefined), for which the half-inhibitory concentration (IC50) turned out to be 280 nM in the assay listed under Homo sapiens [2], 20 nM in the assay filed under Homo sapiens [1] and 220 nM at Thromboxane-A synthase. Moreover, in the assay listed under Canis familiaris [5], the pA2 entry is “Agonist”.
For the compound `O=C(O)CC(CCCCCNS(=O)(=O)c1ccc(Cl)cc1)CCCCc1cccnc1` (centres undefined), the IC50 in the assay filed under Homo sapiens [1] was 1390 nM; at Thromboxane-A synthase, 100 nM.
Take `O=C(O)CCCCC(CCNS(=O)(=O)c1ccc(Cl)cc1)Cc1cccnc1` (centres undefined): in the assay listed under Canis familiaris [4], the Kb was 11.7 nM. The half-inhibitory concentration (IC50) in the assay filed under Homo sapiens [2] came to 370 nM; in the assay listed under Homo sapiens [1], 117 nM; on Thromboxane-A synthase, 14 nM.
In the same order, the values of `O=C(O)CCCC(CCCNS(=O)(=O)c1ccc(Cl)cc1)CCc1cccnc1` (centres undefined) are 1.74 nM, 4600 nM, 220 nM and 20 nM.

The term IC50 denotes the concentration needed to halve the response being measured. The low end stands for greater potency, the high end for weaker potency.
